In PubChem BioAssay (NCI) one finds TGI and GI50 data, which are given here for 15 compounds.

Test systems include OVCAR-8 ovarian; OVCAR-3 ovarian; SK-MEL-5 melanoma; TK-10 renal; U251 CNS; HCC-2998 colon; NCI-H522 lung; MDA-MB-231 breast; MCF7 breast; PC-3 prostate.
Holding throughout (assay): growth of human tumour cells (NCI), 48 h

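Step 1: Grow cells in 96-well plates. Step 2: Expose to compound for 48 hours at 5 concentrations. Step 3: Interpolate endpoints linearly; if unreached, use highest concentration. Abbreviation: GI50, concentration required for 50% inhibition of growth. TGI is the concentration that stops growth completely.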 Some results are limits rather than exact numbers.

Regarding `Cc1ccccc1NC(=O)/C(=N\NC(N)=S)C(C#N)c1ccccc1` (stereo not given), the TGI in the experiment with OVCAR-8 ovarian, with OVCAR-3 ovarian, with SK-MEL-5 melanoma, with TK-10 renal, in the experiment with U251 CNS and with HCC-2998 colon was more than 100 µM in each case. The TGI in the experiment on NCI-H522 lung is more than 100 µM.
`O=C(Nc1nc(-c2ccc(Cl)cc2)cs1)c1cc(O)c(O)c(O)c1`: the GI50 is 150 µM with OVCAR-8 ovarian; 141 µM with MDA-MB-231 breast; 245 µM in the experiment with OVCAR-3 ovarian; 194 µM with SK-MEL-5 melanoma; 207 µM in the experiment on TK-10 renal; 156 µM with U251 CNS. The values for the GI50 in the experiment on HCC-2998 colon, with NCI-H522 lung and in the experiment on MCF7 breast were 700 µM, 21.4 µM and 349 µM, respectively. In addition, the TGI was more than 5000 µM in the experiment with OVCAR-8 ovarian; 3150 µM in the experiment on MDA-MB-231 breast; 1080 µM in the experiment on OVCAR-3 ovarian; 881 µM in the experiment on SK-MEL-5 melanoma; 1470 µM with TK-10 renal; 1200 µM in the experiment with U251 CNS. Further, the TGI in the experiment with HCC-2998 colon was 2080 µM; with NCI-H522 lung, 138 µM; with MCF7 breast, more than 5000 µM.
Take `COC(=O)c1c(O)ccc(O)c1C(C(C)=O)C(C)=O`: the TGI in the experiment with OVCAR-8 ovarian, with OVCAR-3 ovarian, with SK-MEL-5 melanoma, in the experiment with TK-10 renal, in the experiment with U251 CNS and in the experiment on HCC-2998 colon was more than 100 µM in each case. For the same compound, in the experiment with NCI-H522 lung, the TGI was more than 100 µM.
Turning to `CN(c1ccccc1)c1cc2ccccc2nn1`, the TGI in the experiment with OVCAR-8 ovarian, in the experiment on OVCAR-3 ovarian, with SK-MEL-5 melanoma, in the experiment on TK-10 renal, in the experiment on U251 CNS and in the experiment on NCI-H522 lung was more than 100 µM in each case.
Consider `O=C(NC1CC1)c1c(O)[nH]c(=S)[nH]c1=O`, for which the TGI in the experiment with OVCAR-8 ovarian, in the experiment on OVCAR-3 ovarian, in the experiment with SK-MEL-5 melanoma, in the experiment with TK-10 renal, in the experiment on U251 CNS and in the experiment with NCI-H522 lung was more than 100 µM each time.
In the case of `O=C(O)c1ccc2c(c1)C(=O)N(c1ccc(S(=O)(=O)c3ccc(N4C(=O)c5ccc(C(=O)O)cc5C4=O)cc3)cc1)C2=O`, the TGI in the experiment with OVCAR-8 ovarian, with OVCAR-3 ovarian, in the experiment on SK-MEL-5 melanoma, with TK-10 renal, in the experiment on U251 CNS and with NCI-H522 lung was more than 100 µM each time.
As to `O=C(Oc1ccccc1)N(c1ccccc1)c1ccccc1`, the GI50 in the experiment on OVCAR-8 ovarian is 31.8 µM; in the experiment on MDA-MB-231 breast, 28 µM; in the experiment on OVCAR-3 ovarian it was 23.7 µM; in the experiment with SK-MEL-5 melanoma, 15 µM; in the experiment on TK-10 renal, 37.1 µM; in the experiment with U251 CNS, 31.1 µM. In addition, the GI50 in the experiment on PC-3 prostate was 35.1 µM. Further, the TGI was more than 100 µM with OVCAR-8 ovarian; more than 100 µM with MDA-MB-231 breast; more than 100 µM with OVCAR-3 ovarian; 29.9 µM in the experiment with SK-MEL-5 melanoma; more than 100 µM with TK-10 renal; more than 100 µM in the experiment with U251 CNS. In the experiment with PC-3 prostate, this compound showed a TGI of more than 100 µM.
Regarding `CC1(C)c2ccccc2N2C(c3ccccc3)=NOC21C` (stereo not given), the TGI in the experiment with OVCAR-8 ovarian, in the experiment on OVCAR-3 ovarian, in the experiment on SK-MEL-5 melanoma, with TK-10 renal, in the experiment on U251 CNS and with NCI-H522 lung was more than 100 µM in each case.
On to `C[P+]1(Cc2ccccc2)CCCC1`, for which the TGI with OVCAR-8 ovarian, in the experiment with OVCAR-3 ovarian, in the experiment on SK-MEL-5 melanoma, in the experiment with TK-10 renal, with U251 CNS and in the experiment on HCC-2998 colon was more than 100 µM in each case. The TGI with NCI-H522 lung is more than 100 µM.
In the case of `CC1OC(n2cc(C(F)(F)F)c(=O)[nH]c2=O)C=CC1=O` (stereo not given), the TGI in the experiment with OVCAR-8 ovarian stood at 80 µM; with OVCAR-3 ovarian, 31.9 µM; with TK-10 renal, 35.3 µM; in the experiment on HCC-2998 colon, 32.3 µM; in the experiment with NCI-H522 lung it was 32.5 µM.
Take `CCOC(=O)C1=C(C)NC(=O)NC1c1ccc(OC)cc1OC` (stereo not given): the TGI with OVCAR-8 ovarian, in the experiment with OVCAR-3 ovarian, in the experiment on SK-MEL-5 melanoma, in the experiment with TK-10 renal, with U251 CNS and with HCC-2998 colon was more than 100 µM each time. In the experiment with NCI-H522 lung, this compound came in with a TGI of more than 100 µM.
`CC(=O)OCC1OC(n2cccnc2=O)C(OC(C)=O)C1OC(C)=O` (stereo not given): the TGI with OVCAR-8 ovarian, in the experiment with OVCAR-3 ovarian, in the experiment on SK-MEL-5 melanoma, in the experiment with TK-10 renal, with U251 CNS and in the experiment with NCI-H522 lung was more than 100 µM throughout.
`CN(C)NC1=C([N+](=O)[O-])C=NN(c2ccccc2)C1`: the TGI in the experiment on OVCAR-8 ovarian turned out to be 4.16 µM; in the experiment on OVCAR-3 ovarian, 3.29 µM; in the experiment on SK-MEL-5 melanoma, 6.41 µM; in the experiment with TK-10 renal, 11.8 µM; in the experiment on U251 CNS it was 3.17 µM; in the experiment with HCC-2998 colon it was 3.18 µM. In the experiment with NCI-H522 lung, this compound had a TGI of 0.343 µM.
Turning to `N#C/C(=C\c1c(O)cc(O)cc1O)C(N)=O`, the TGI in the experiment on OVCAR-8 ovarian, in the experiment with OVCAR-3 ovarian, in the experiment with SK-MEL-5 melanoma, with TK-10 renal, in the experiment on U251 CNS and in the experiment on HCC-2998 colon was more than 100 µM each time. This compound had a TGI in the experiment on NCI-H522 lung of more than 100 µM.
On to `Oc1ccc2c(=S)cc(-c3ccc(Br)cc3)oc2c1O`, for which the GI50 was 2.28 µM with OVCAR-8 ovarian; 1.81 µM with MDA-MB-231 breast; 1.79 µM with SK-MEL-5 melanoma; 4.16 µM in the experiment on TK-10 renal; 2.44 µM in the experiment on U251 CNS; 2.92 µM with PC-3 prostate. In addition, the results for the GI50 with HCC-2998 colon and in the experiment with NCI-H522 lung were 2.28 µM and 1.16 µM, respectively. The TGI in the experiment on OVCAR-8 ovarian is 8.92 µM; in the experiment on MDA-MB-231 breast, 8.4 µM; in the experiment with SK-MEL-5 melanoma, 3.95 µM; in the experiment on TK-10 renal it was 14.7 µM; in the experiment on U251 CNS, 8.93 µM; with PC-3 prostate it was 17.1 µM. The TGI in the experiment with HCC-2998 colon turned out to be 7.03 µM; in the experiment on NCI-H522 lung, 3.88 µM.
